Source: paper PMC12372887, “Mechanism and cellular actions of the potent AMPK inhibitor BAY-3827” (Science Advances, 2025)
“Also recorded” adds a separate entry of the source.

Columns and labels:
[1] = target: PAK4 (Homo sapiens, UniProt O96013); assay: Kinase panel (140 human kinases); format: biochemical
Outline: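 Single-point profiling at 0.1 μM; BAY-3827 also at 1 μM. ^33P-ATP radiometric filter-binding format, duplicates. ATP 5/20/50 μM (≤ Km for each enzyme). Readout: % residual activity, mean ± SD.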

[2] = target: T1, CaMKK2 (Homo sapiens, UniProt Q96RR4); assay: Cell-free CaMKK2 kinase assay (CaMKKtide); format: biochemical; settings: increasing concentrations, 0 to 1 μM
T1 construct: made in house; host or cells: HEK293 (transient transfection, anti-FLAG immunoprecipitate)
Experimental: Heterotrimeric human AMPK FLAG- α1β1γ1, FLAG- α2β1γ1, and FLAG- α2β2γ1, as well as human FLAG-CaMKK2 and FLAG-ULK1, were produced in mammalian HEK293 cells as described ([66], [67]). For AMPK expression, the cells were triply transfected at 60% confluency using FuGene HD (Roche Applied Science) and 1 μg of pcDNA3 plasmid expression constructs for AMPK Flag-α1, β1-Myc, β2-Myc, and HA-γ1. For CaMKK2 expression, the cells were transfected with 1 μg of pcDNA3 Flag-CaMKK2 plasmid. For ULK1 expression, the cells were transfected with […] of pcDNA3 FLAG-ULK1 plasmid. After 48 hours, the transfected cells were harvested by rinsing with ice-cold PBS, followed by rapid lysis using 500 μl of lysis buffer. AMPK, CaMKK2, and ULK1 kinase activities were determined by phosphorylation of synthetic peptide substrates: SAMS (HMRSAMSGLHLVKRR), CaMKKtide ([…]), and S108tide. (KLPLTRSHNNFVARRR), respectively. Briefly, recombinant AMPK, CaMKK2, or ULK1 were immunoprecipitated from 10 μg of transfected cultured cell lysate using 10 μl of anti-FLAG M2 agarose beads [50% (v/v)] […] Radioactivity was quantified by liquid scintillation counting. […]

[3] = system: pThr172-AMPKα in U2OS cells; assay: HTRF assay of Thr172-AMPKα phosphorylation in U2OS cells; format: cell-based, human; settings: for AMPK phosphorylation (pThr172): dose response; for EC50: Homo sapiens, U2OS
Experimental: (§1) Human osteosarcoma U2OS WT cells were obtained from John Rouse (MRC Protein Phosphorylation and Ubiquitylation Unit, University of Dundee) and were cultured in DMEM high glucose + GlutaMAX Supplement, pyruvate (Thermo Fisher Scientific, catalog no. 31966-021) containing penicillin G (100 U/ml), streptomycin (100 μg/ml), and 10% (v/v) FBS seeding with 50,000 cells per well in a 50-μl volume in culture 96-well cell culture plates (Corning Incorporated costar, #3599). The next day, the media were changed to 50 μl of serum-free media, and 50 μl of serum-free media containing BAY-3827 or BAY-974 was dispensed and left to incubate at 37°C for 30 min. […] HTRF assays using either phospho-Ser^79-ACC1 kit (Revvity, #64ACCPEG) or phospho-Thr^172-AMPK kit (Revvity, #64AMPKPEG) were performed in triplicate in HTRF 96-well low volume white plates (Revvity, #66PL96001) following manufacturer’s instructions. Sealed plates incubated overnight in darkness conditions were scanned at room temperature in Multimode Plate Reader EnVision (PerkinElmer) machine following HTRF setup recommendations for EnVision (Revvity), equipped with a top mirror LANCE/DELFIA single mirror (#412), a UV2 (TRF) 320 excitation filter (#111), emission filter APC 665 (#205), and second emission filter Europium 615 (#203), with a 2000-μs cycle and 60-μs delay, with the number of flashes set to 100 as well as for the 2nd detector. Results were viewed in EnVision Manager software (version 1.13.3009.1401) where 665/615 ratios were calculated, and data were normalized to control condition as %. All assay ratios between control lysate signal/nonspecific signal were greater than 2 as expected of a successful assay following the manufacturer’s instructions. Data were visualized in GraphPad Prism v10.

[4] = system: AMPKα1α2+/+ control primary hepatocytes; assay: Lipogenesis assay ([14C]-acetate incorporation into fatty acids); format: cell-based, mouse
Experimental: Mouse hepatocytes were isolated by collagenase perfusion as previously described ([47]). Hepatocytes were seeded in medium Eagle-199 (MEM-199) (#41150, Thermo Fisher Scientific) containing penicillin G (100 U/ml), streptomycin (100 μg/ml), and 10% (v/v) fetal bovine serum (FBS). Hepatocytes were left for attachment (3 to 4 hours) and serum-starved overnight at 37°C with 5% CO2 in MEM-199 supplemented with penicillin G (100 U/ml), streptomycin (100 μg/ml), 10 nM insulin, and 100 nM dexamethasone. […] Cells were then harvested in 0.5 ml of phosphate-buffered saline (PBS), transferred into 1 ml of 40% KOH and 2 ml of methanol followed by 1-hour incubation at 80°C. Lipids were […] by acidifying the samples in 37% HCl and extracted with petroleum ether. Extracts were allowed to evaporate to dryness and then dissolved in Ultima Gold scintillation fluid for determination of [^14C]-acetate incorporation into lipids.

[5] = system: pSer79-ACC1 in U2OS cells; assay: HTRF assay of Ser79-ACC1 phosphorylation in U2OS cells; format: cell-based, human; settings: for IC50: Homo sapiens, U2OS
Experimental: as §1

PAK4, sequence (O96013 whole entry): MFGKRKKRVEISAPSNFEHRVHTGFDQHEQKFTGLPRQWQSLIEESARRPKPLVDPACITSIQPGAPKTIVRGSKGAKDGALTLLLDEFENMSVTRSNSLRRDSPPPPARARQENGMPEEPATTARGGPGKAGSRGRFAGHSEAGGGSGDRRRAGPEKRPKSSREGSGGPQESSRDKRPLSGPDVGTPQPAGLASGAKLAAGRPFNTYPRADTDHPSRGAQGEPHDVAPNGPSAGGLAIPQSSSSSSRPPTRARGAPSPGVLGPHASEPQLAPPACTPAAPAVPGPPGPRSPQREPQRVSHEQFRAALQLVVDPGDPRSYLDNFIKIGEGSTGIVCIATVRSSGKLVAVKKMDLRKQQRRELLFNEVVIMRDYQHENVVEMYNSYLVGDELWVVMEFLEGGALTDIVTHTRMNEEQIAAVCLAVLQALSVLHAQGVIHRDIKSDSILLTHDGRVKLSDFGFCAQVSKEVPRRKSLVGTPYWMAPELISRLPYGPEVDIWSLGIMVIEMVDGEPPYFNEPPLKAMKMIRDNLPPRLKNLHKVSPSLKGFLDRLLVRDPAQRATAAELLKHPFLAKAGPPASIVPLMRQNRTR
T1 sequence (Q96RR4 whole entry): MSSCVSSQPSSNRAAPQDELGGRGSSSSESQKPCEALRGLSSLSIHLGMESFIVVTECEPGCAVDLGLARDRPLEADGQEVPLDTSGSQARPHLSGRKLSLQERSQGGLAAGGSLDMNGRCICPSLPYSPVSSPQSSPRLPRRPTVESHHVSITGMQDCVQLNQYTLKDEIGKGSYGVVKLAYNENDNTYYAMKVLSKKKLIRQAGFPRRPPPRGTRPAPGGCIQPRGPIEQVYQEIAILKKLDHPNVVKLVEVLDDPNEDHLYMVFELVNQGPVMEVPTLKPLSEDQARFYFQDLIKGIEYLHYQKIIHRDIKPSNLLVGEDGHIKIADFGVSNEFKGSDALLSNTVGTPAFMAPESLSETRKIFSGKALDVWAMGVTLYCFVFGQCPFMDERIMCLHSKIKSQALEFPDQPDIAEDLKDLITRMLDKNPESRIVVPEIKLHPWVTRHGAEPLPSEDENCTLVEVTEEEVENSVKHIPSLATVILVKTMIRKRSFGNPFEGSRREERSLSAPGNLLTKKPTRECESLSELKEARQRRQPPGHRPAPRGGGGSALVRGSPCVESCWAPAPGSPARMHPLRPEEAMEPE

SMILES	remaining activity at 0.1 µM [1] [%]	inhibitory effect on kinase activity [2]	AMPK phosphorylation (pThr172) [3]	effect on lipogenesis ([4]; 5 μM, vehicle- and MK-8722–treated conditions)	inhibition of ACC1 phosphorylation ([5]; up to highest tested concentration of 100 μM)	EC50 ([3]; + MK-8722 (10 μM)) [nM]	EC50 ([3]; without MK-8722) [nM]	rescue of MK-8722–mediated inhibition of lipogenesis ([4]; 2.5 and 5 μM, + MK-8722 (10 μM))	stimulation of lipogenesis ([4]; compound alone, 2.5 and 5 μM) [%]	IC50 ([5]; + MK-8722 (10 μM)) [nM]	IC50 ([5]; without MK-8722) [nM]
CC1=C(C#N)C(c2ccc3c(c2)c(NC(=O)c2ccccc2C)nn3C)C(C#N)=C(C)N1 [BAY-974, N-[5-(3,5-dicyano-2,6-dimethyl-1,4-dihydropyridin-4-yl)-1-methylindazol-3-yl]-2-methylbenzamide]	96	no inhibitory effect	not	no effect	No inhibition	–	–	–	–	–	–
CCc1ccccc1C(=O)Nc1n[nH]c2c(C)c(F)c(C3C(C#N)=C(C)N(C)C(C)=C3C#N)cc12 [BAY-3827, N-[5-(3,5-dicyano-1,2,6-trimethyl-4H-pyridin-4-yl)-6-fluoro-7-methyl-1H-indazol-3-yl]-2-ethylbenzamide]	80	no inhibitory effect	dose-dependently increased	–	–	570	1930	dose-dependently rescued; also recorded: fully reversing	70 to 90	6360	930
